# In ChEMBL document CHEMBL1201862, “PubChem BioAssay data set” (2004):
# The source made the active and inactive calls.
# Legend:
# Cytochrome P450 3A4 = Cytochrome P450 3A4 (Homo sapiens, UniProt P08684);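 note: CYP3A4 tested as one member of a cytochrome P450 panel screen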
# Cytochrome P450 2C19 = Cytochrome P450 2C19 (Homo sapiens, UniProt P33261); assay: Cytochrome panel assay with activity outcomes. Panel member name: p450-cyp2c19 Compounds with AC50 equal or less than 10 uM are considered active; assay type: functional; settings: read-out: AC50
# Cytochrome P450 2C19, sequence (P33261 whole entry, the tested form may be a part): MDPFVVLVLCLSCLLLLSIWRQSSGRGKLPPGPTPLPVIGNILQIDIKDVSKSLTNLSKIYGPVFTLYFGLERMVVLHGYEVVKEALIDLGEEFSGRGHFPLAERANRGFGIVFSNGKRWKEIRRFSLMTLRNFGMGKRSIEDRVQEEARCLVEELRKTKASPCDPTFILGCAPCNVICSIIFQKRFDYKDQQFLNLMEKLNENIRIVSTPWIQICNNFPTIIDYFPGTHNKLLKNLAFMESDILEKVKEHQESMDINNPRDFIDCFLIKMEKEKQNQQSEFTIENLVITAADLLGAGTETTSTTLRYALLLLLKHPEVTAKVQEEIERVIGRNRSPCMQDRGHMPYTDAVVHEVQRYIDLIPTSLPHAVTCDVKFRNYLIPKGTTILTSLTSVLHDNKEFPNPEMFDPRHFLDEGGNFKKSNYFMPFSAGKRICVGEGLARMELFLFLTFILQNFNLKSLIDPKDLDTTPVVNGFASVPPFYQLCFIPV
# [1] = HIV-1 AD8 envelope cell-cell fusion blockers – cherry-pick, dose response (AID 652062); assay type: functional, cell-based;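 note: luciferase signal from cell-cell fusion driven by HIV-1 clade B AD8 Env; potency is for inhibitors of fusion seen as a drop in luminescence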
# [2] = target: T1, Microphthalmia-associated transcription factor (Homo sapiens, UniProt O75030); assay: reducers of TRPM1 reporter luminescence, concentration series – cell-based, SK-MEL-5, cherry-picked, set 3, MITF inhibitor project, dose response (AID 493073); assay type: functional;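 note: SK-MEL-5 melanoma cells with luciferase driven by the MITF target TRPM1 promoter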
# T1 sequence (O75030 whole entry): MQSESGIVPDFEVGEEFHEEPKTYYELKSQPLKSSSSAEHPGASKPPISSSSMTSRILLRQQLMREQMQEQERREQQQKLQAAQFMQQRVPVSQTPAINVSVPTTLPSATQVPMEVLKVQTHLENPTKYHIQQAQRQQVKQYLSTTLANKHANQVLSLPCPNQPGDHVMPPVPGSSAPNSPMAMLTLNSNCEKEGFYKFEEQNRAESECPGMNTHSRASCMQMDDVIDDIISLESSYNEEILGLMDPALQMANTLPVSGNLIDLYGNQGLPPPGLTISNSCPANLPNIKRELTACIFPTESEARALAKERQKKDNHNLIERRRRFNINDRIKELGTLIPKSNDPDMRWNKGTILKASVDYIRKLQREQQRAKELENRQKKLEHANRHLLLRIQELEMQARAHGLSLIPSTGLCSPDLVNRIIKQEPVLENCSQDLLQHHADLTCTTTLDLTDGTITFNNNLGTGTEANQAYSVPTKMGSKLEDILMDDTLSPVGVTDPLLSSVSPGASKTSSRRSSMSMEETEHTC
# [3] = NIH-3T3 fibroblast cytotoxicity, dose response, cytotoxicity control, cell-based, fluorescence, Alamar Blue, secondary assay (AID 2327); assay type: functional;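 note: NIH-3T3 mouse fibroblasts cultured with fluconazole at 8 µg/mL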
# [4] = fluconazole-exposed Candida albicans growth modulators – fluorescence, retest, confirmation (AID 2467); assay type: functional, cell-based
# Cytochrome P450 2C9 = Cytochrome P450 2C9 (Homo sapiens, UniProt P11712)
# Cytochrome P450 2C9, sequence (P11712 whole entry): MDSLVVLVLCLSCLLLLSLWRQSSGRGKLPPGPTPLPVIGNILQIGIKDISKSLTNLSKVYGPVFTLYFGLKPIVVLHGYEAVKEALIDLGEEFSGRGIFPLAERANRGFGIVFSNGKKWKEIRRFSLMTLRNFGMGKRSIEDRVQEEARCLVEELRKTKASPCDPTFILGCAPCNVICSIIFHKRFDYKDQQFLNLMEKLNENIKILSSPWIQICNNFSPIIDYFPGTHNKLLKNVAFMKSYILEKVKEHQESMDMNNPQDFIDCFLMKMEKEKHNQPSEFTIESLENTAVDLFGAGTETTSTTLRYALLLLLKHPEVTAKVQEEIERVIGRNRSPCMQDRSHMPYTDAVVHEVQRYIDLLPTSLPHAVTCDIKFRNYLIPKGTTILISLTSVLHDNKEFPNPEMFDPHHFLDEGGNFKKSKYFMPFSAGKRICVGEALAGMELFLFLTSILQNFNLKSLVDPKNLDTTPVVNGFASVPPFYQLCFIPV
# [5] = target: Luciferin 4-monooxygenase (Photinus pyralis, UniProt P08659); assay: inhibition of purified Photinus pyralis luciferase – biochemical, luminescence, dose response (AID 1891)
# Luciferin 4-monooxygenase, sequence (P08659 whole entry): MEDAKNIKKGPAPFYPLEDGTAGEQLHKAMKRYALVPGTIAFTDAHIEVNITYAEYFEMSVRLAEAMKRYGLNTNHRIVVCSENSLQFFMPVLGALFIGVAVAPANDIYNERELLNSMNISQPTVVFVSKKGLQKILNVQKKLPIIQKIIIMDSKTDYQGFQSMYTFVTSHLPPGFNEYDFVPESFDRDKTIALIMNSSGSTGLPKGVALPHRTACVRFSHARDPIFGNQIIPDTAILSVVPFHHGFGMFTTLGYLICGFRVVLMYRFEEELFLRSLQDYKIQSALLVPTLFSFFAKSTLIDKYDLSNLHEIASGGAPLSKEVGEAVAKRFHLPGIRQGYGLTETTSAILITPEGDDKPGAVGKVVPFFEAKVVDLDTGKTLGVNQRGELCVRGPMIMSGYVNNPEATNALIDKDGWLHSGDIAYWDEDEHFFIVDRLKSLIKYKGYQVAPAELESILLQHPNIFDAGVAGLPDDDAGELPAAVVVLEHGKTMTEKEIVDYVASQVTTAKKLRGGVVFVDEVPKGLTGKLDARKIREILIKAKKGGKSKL
# [6] = Luminescence Cell-Based Dose Confirmation HTS to Identify Inhibitors of Platelet Dense Granule Release. [Related pubchem assays: 1663 (Primary HTS), 1678 (Summary of Project)]; assay type: functional
# Cytochrome P450 2D6 = Cytochrome P450 2D6 (Homo sapiens, UniProt P10635);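 note: CYP2D6 member of a cytochrome P450 panel assay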
# Cytochrome P450 2D6, sequence (P10635 whole entry): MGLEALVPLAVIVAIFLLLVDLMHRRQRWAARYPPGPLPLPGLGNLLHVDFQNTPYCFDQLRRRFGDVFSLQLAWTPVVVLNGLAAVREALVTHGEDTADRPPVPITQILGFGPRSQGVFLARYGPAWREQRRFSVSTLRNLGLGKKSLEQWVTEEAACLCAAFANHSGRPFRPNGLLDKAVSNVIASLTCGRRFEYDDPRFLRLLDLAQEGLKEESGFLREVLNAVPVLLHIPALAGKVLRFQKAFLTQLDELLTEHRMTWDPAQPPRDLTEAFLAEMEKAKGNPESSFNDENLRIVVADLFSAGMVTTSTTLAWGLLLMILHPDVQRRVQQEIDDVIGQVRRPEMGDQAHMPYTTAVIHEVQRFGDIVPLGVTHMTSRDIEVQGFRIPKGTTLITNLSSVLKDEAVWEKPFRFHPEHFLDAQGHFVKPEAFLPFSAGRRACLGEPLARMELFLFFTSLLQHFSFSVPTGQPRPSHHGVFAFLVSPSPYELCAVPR
# [7] = luciferase reporter signal suppression in cells – H4 neuroglioma cells, luminescence, dose response (AID 1990); assay type: functional, cell-based
# BJ [8] = assay: BJ-TERT fibroblast viability loss – cell-based, RAS-independent, luminescence, dose response (AID 1933); assay type: functional; settings: Homo sapiens
# Streptokinase A = target: T2, Streptokinase A (Streptococcus pyogenes serotype M1, UniProt P10520); assay: viability-normalized secreted streptokinase activity reduction – plasminogen activation absorbance, OD405, dose response (AID 1914); assay type: functional, Streptococcus pyogenes M1 GAS;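 note: secreted streptokinase activity via plasminogen activation per viability signal from cell pellet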
# T2 sequence (P10520 whole entry): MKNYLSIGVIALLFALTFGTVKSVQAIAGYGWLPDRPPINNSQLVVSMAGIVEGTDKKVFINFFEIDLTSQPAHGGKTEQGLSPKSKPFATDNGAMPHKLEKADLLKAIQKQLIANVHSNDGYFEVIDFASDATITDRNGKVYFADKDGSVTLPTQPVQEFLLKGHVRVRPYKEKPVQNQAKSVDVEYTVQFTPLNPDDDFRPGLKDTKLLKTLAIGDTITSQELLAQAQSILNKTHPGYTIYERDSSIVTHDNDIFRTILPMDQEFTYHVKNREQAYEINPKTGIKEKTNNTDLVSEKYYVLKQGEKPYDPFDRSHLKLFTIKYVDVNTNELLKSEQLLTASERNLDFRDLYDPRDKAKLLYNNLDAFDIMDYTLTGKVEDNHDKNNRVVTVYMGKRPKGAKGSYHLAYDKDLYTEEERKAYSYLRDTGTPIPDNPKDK
# Streptococcus = assay: GAS UMAA2166 growth inhibition – luminescence, BacTiterGlo, counter-screen for streptokinase expression inhibitor project, dose response (AID 1915); assay type: functional, organism-based;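 note: potency for reduction of bacterial viability or growth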
# [9] = DRD fibroblast viability loss – cell-based, non-viral oncogenic, luminescence, dose response (AID 1934); assay type: functional; settings: Homo sapiens
# BJ [10] = assay: BJ-TERT-LT-ST fibroblast viability loss – cell-based, RAS-independent, luminescence, dose response (AID 1935); assay type: functional; settings: Homo sapiens;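 note: BJ fibroblasts immortalized with TERT plus LT and ST oncogenes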
# [11] = alpha-synuclein stem-loop luciferase translation blockers – H4 neuroglioma cells, luminescence, confirmation (AID 1988); assay type: functional, cell-based
# [12] = Luminescence Cell-Based Dose Response HTS to Identify Inhibitors of 5'UTR Stem-Loop Driven Prion Protein mRNA Translation in H4 Neuroglioblastoma Cells. [Related pubchem assays: 1827 (Project Summary), 1813 (Primary HTS)]; assay type: functional
# BJ [13] = assay: cells; assay type: functional, cell-based; settings: Homo sapiens
# [14] = tested on: Streptococcus sp. 'group A'; assay: Streptococcus pyogenes SK(-)GAS viability under kanamycin – luminescence, BacTiterGlo, confirmation, counter-screen for streptokinase expression inhibitor project, dose response (AID 1900); assay type: functional, organism-based
# [15] = Trypanosoma cruzi growth suppression in host cells – NIH3T3 host cells, beta-gal luminescence, confirmation (AID 2044); assay type: functional, cell-based;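 note: intracellular parasites grown in NIH/3T3 mouse fibroblasts as host cells; luminescent beta-galactosidase reporter signal from transgenic T. cruzi replicating inside host cells; inhibitors lower the luminescence signal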
# [16] = NIH3T3 cell viability loss – ATP luminescence, mouse fibroblasts, counter-screen, dose response (AID 2010); assay type: functional, cell-based;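 note: cells exposed to compound for about 90 hours before reading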
# [17] = Luminescence Cell-Based Dose Response HTS to Identify Activators of Luciferase Translation or Activity in H4 […] Cells. [Related pubchem assays: 1829 (Project Summary), 1814 (Primary HTS)]; assay type: functional
# SN12K1 = assay: cells; assay type: functional
# P388/ADR = assay: cells; assay type: functional
# P388 = assay: cells; assay type: functional
# Cytochrome P450 3A4, sequence (P08684 whole entry): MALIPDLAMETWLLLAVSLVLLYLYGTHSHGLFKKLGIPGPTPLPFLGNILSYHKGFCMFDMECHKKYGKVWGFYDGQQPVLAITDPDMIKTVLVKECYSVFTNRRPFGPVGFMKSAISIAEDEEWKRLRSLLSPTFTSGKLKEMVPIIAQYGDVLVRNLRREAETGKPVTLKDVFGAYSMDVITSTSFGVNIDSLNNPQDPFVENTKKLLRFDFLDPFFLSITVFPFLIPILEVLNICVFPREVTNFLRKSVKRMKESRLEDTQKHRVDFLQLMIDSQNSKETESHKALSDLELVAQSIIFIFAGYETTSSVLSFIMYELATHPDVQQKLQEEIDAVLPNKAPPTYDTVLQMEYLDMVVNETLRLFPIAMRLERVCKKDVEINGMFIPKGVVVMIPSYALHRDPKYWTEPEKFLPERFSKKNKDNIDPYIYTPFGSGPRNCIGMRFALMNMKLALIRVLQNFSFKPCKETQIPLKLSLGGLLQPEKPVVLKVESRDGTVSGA
smiles,measurement,setting,value
C[C@H](NC[C@H](O)CP(=O)(O)CC1CCCCC1)c1ccc(Cl)c(Cl)c1,AC50,Cytochrome P450 3A4,31.6 µM (inconclusive)
C[C@@H]1CCCN(CP(=O)(c2ccccc2)c2ccccc2)C1,AC50,Cytochrome P450 3A4,3.98 µM (inconclusive)
same,AC50,Cytochrome P450 2C19,0.126 µM (inconclusive)
Cc1ccc(-n2nnnc2SCn2nnc3ccccc3c2=O)c(C)c1,AC50,[1],30.1 µM (active)
COC(=O)[C@H]1C[C@@H]1[C@H](NC(=O)OCc1ccccc1)c1ccccc1,AC50,Cytochrome P450 3A4,25.1 µM (inconclusive)
Cn1nnnc1Sc1ncnc2scc(-c3cccs3)c12,AC50,[2],7 µM (active)
Cn1c(=O)c(C(=O)NCCc2ccccc2)c(O)c2ccccc21,EC50,[3],> 150 µM (inactive)
same,EC50,[4],> 38 µM (not active)
COC(=O)N1CCC[C@@]2(CCN(C(=O)Nc3ccc(OC)cc3)C2)C1,AC50,Cytochrome P450 3A4,10 µM (inconclusive)
same,AC50,Cytochrome P450 2C9,20 µM (inconclusive)
O=C(COc1ccc(C(=O)c2ccccc2)cc1)NC1CCCCC1,EC50,[5],> 112 µM (not active)
same,EC50,[6],> 112 µM (not active)
CCn1c(O)c(N=NC(=O)c2ccc(CSc3nncn3C)cc2)c2ccccc21,EC50,[5],> 112 µM (not active)
same,EC50,[6],> 112 µM (not active)
O=C(/C=C/c1ccccc1)NCC1(c2ccccc2)CCOCC1,EC50,[5],> 112 µM (not active)
same,EC50,[6],> 112 µM (not active)
O=C(c1ccncc1)N1CCC[C@@]2(CCN(c3ncccn3)C2)C1,AC50,Cytochrome P450 3A4,15.8 µM (inconclusive)
same,AC50,Cytochrome P450 2C9,20 µM (inconclusive)
same,AC50,Cytochrome P450 2C19,25.1 µM (inconclusive)
CCCCCCN1C=CC(=C/C=C(\C#N)C(=O)OCC)C=C1,AC50,Cytochrome P450 3A4,15.8 µM (inconclusive)
same,AC50,Cytochrome P450 2D6,14.1 µM (inconclusive)
CSc1nc(Oc2ccc3ccccc3c2)c2sccc2n1,EC50,[7],12.9 µM (active)
same,EC50,BJ [8],12.5 µM (active)
same,EC50,Streptokinase A,39.1 µM (active)
same,EC50,Streptococcus,> 150 µM (not active)
same,EC50,[9],12.8 µM (inconclusive)
same,EC50,BJ [10],13.6 µM (inconclusive)
same,EC50,[11],8.16 µM (active)
same,EC50,[12],> 120 µM (not active)
same,EC50,BJ [13],52.3 µM (active)
same,EC50,[14],34.3 µM (active)
O=C(c1ccccc1)c1ccc(NCCCn2ccnc2)c([N+](=O)[O-])c1,EC50,BJ [8],> 150 µM (not active)
same,EC50,[9],147 µM (active)
same,EC50,[15],1.8 µM (active)
same,EC50,BJ [10],> 150 µM (inconclusive)
same,EC50,BJ [13],> 150 µM (not active)
same,EC50,[16],> 60 µM (not active)
CCOC(=O)Cn1c(=O)n(Cc2ccco2)c(=O)c2ccc(C(=O)NC3CCCC3)cc21,EC50,[5],> 112 µM (not active)
same,EC50,[6],13.8 µM (active)
CCC(CC)C(=O)Nc1ccc(C)c(O)c1,AC50,Cytochrome P450 3A4,4.47 µM (inconclusive)
CCC(=O)Nc1cccc(-c2nnc(SCC(=O)c3ccccc3)n2C)c1,EC50,[17],47.5 µM (active)
CCOc1ccc(OCc2ccc(C(=O)NCc3cccnc3)o2)cc1,EC50,[5],> 112 µM (not active)
same,AC50,Cytochrome P450 2D6,1.26 µM (inconclusive)
same,EC50,[6],> 112 µM (not active)
Cc1noc(C)c1C(=O)N1CCC2(CCCN(Cc3ccccc3)C2)CC1,AC50,Cytochrome P450 3A4,25.1 µM (inconclusive)
Cc1ccc(C(=O)/C=C/c2c[nH]c3ccccc23)cc1,AC50,Cytochrome P450 3A4,25.1 µM (inconclusive)
same,AC50,Cytochrome P450 2D6,22.4 µM (inconclusive)
CN(NC(=O)c1ccccc1)c1nc2ccccc2nc1C(F)(F)F,EC50,BJ [8],18.4 µM (active)
same,EC50,[9],16.5 µM (active)
same,EC50,BJ [10],17.3 µM (active)
same,EC50,BJ [13],26.9 µM (active)
CC(=O)c1ncnn1CC(=O)c1ccc(Cl)cc1Cl,EC50,[3],21.9 µM (inconclusive)
same,EC50,[4],1.37 µM (active)
CC(C)CN1CC[C@@]2(CCCN(C(=O)c3cnccn3)C2)C1,AC50,Cytochrome P450 3A4,15.8 µM (inconclusive)
CCCC(O)(CCC)C(=O)NNc1ccc(C)cc1,EC50,[3],> 160 µM (inconclusive)
same,EC50,[4],> 38 µM (not active)
CC(C)c1ccc(C(=O)OC2CCOC2=O)cc1 (stereo not drawn),EC50,[5],> 112 µM (not active)
same,EC50,[6],> 112 µM (not active)
CCc1cc(=O)oc2cc(C)cc(OCC(=O)NCc3cccnc3)c12,EC50,[5],> 112 µM (not active)
same,EC50,[6],> 112 µM (not active)
COc1ccc(C(O)c2nc3ccccc3n2C)cc1OC (stereo not drawn),AC50,[1],3.4 µM (active)
CO[C@@H]1/C=C\CC(=O)N[C@@H](C)C(=O)OC[C@H](NS(=O)(=O)c2ccc(C)cc2)[C@H](C)/C=C\CC(=O)OC[C@H]1C,AC50,Cytochrome P450 3A4,3.98 µM (inconclusive)
O=C(N/N=C/c1ccco1)c1cc(-c2ccncc2)nc2ccccc12,EC50,BJ [8],15.2 µM (active)
same,EC50,[9],23.3 µM (active)
same,EC50,BJ [10],> 75 µM (not active)
same,EC50,BJ [13],60.7 µM (active)
Oc1c(Cl)cccc1/C=N/c1cc(C(F)(F)F)ccc1N1CCCC1,EC50,[5],> 112 µM (not active)
same,EC50,[6],> 112 µM (not active)
C/C(=N\NC(=O)C1CCCC1)c1ccc(Cl)c(Cl)c1,EC50,[3],> 150 µM (inactive)
same,EC50,[4],> 38 µM (not active)
COC(C(=O)C(O)C(C)O)C1Cc2cc3cc(OC4CC(OC(C)=O)C(OC5CC(O)C(OC)C(C)O5)C(C)O4)cc(O)c3c(O)c2C(=O)C1OC1CC(OC2CC(OC3CC(C)(O)C(OC(=O)C(C)C)C(C)O3)C(O)C(C)O2)C(O)C(C)O1 (stereo not drawn),GI50,SN12K1,0.00895 µM (active)
same,GI50,"SN12K1; Homo sapiens, SN12K1",0.01 µM (active)
same,GI50,P388/ADR,5.12 µM (inactive)
same,GI50,"P388/ADR; Mus musculus, P388/ADR",5.98 µM (inactive)
same,GI50,P388,0.0075 µM (active)
same,GI50,"P388; Mus musculus, P388",0.0123 µM (active)
OCC1OC(n2cnc3c(NC4CCCC4)ncnc32)C(O)C1O (stereo not drawn),EC50,[5],> 112 µM (not active)
same,EC50,[6],1.09 µM (active)
